Experimental data from patent US10718769B2, “Compounds comprising one or more hydrophobic domains and a hydrophilic domain comprising peg moieties, useful for binding cells” (Roche Diagnostics Operations, Inc., priority 2013, dated 2020).
Several values for one entry are separate records, joined by “and”; a condition that tells them apart may be missing. Identical values can stand only once. Like-named read-outs stand apart in the source and are kept apart here.

Experiments:
white blood cells (WBCs) = conditions: for WBC per well: 300 000 WBCs/well
Procedure: Aim of this experiment: Testing of the white blood cell immobilization on a streptavidin-coated surface using different molecules of the invention. In particular, the performance of a single cholesterol-molecule and different dual-linker molecules (i.e. containing two hydrophobic moieties) was tested. In detail, immobilization of white blood cells (WBCs) on a Streptavidin-coated surface using different linker molecules was tested on a 12-well plate: 300 000 WBCs/well. This was followed by the measurement of the cell recovery rate after immobilization and washing of the cells using the Cellavista instrument (10× Nuclei Operator s9s5).

WBC (white blood cells) = conditions: for MW (mean WBC per well): target: 300.000 WBC
Procedure: 4× determination. Row A: 200 μl PBS introduced, 1 nmol of compound added thereto respectively, mixed, incubated about 30 min, washed 2×PBS, 800 μl PBS introduced, 300.000 WBC (untreated) added. Row B: 800 μl PBS introduced, 300.000 WBC (untreated) added. Row C: 10×10^6 WBC in 1 ml with 10 nmol compound of invention 10 min incubated, 800 μl PBS/Well introduced, 300.000 treated WBC respectively. The first MTP plate washed after 30 min 2× with PBS, overlayed with Höchst and incubated for 15 min.>Cellavista (Operator s9s5) measured. The second plate was measured after 90 min. The third plate was measured after 150 min.
The experiments were performed for different incubation times, as shown below:
As starting material 5′-(Cholesteryl-TEG)2-PEG2000-Fluos-Biotin_TEG-3′ INVERS
(14530 pmol/μl) (Internal Reference No.: 29.891250), and a streptavidin treated MTP (Microcoat), 12 Well plate were used.
Erythrocyte lysis was performed as follows:
EDTA-whole blood 59.423 6.400 WBC/μl (Ambulanz Roche)
lysis buffer: 100 mM NH4Cl+5 mM Hepes+0.5 mM KHCO3+0.1 mM EDTA-K
Ca 1×8 ml whole blood filled in 50 ml Falcon tube with lysis buffer, incubate at room temperature for 10 min
15 min at 250 g centrifugated, pellet resuspended by pipetting in and out in lysis buffer; filled to 50 ml with lysis buffer
15 min 250 g centrifugated, pellet resuspended with PBS, filled to 50 ml with PBS, 15 min 250 g centrifugated, filled to 50 ml with PBS
The design of the experiment on the plate is explained below (see FIG. 2):
3×12 Well MTP: Treatment of the WBC with compounds of the invention:
Row A: 200 μl PBS introduced, 1 nmol of compound added thereto respectively, mixed, incubated about 30 min, washed 2×PBS,
800 μl PBS introduced, 300.000 WBC (untreated) added.
Row B: 800 μl PBS introduced, 300.000 WBC (untreated) added.
Row C: 10×10^6 WBC in 1 ml with 10 nmol compound of invention 10 min incubated, 800 μl PBS/Well introduced, 300.000 treated WBC respectively.
The first MTP plate washed after 30 min 2× with PBS, overlaid with Höchst and incubated for 15 min.>Cellavista (Operator s9s5) measured.
The second plate was measured after 90 min.
The third plate was measured after 150 min.

WBCs = test: Labelling of cells using compounds of the invention; format: cell-based
Source text: (§1) 2. Labelling of Cells Using Compounds of the Invention

Epithelial cells = test: as above; format: cell-based
Source text: as §1

MDA-MB468 = test: as above; format: cell-based
Source text: as §1

U937 = test: as above; format: cell-based
Source text: as §1

WBC = WBC recovery rate after centrifugation (stabilization of cells, Example 5); format: cell-based; conditions: centrifugation 10 min, 300×g
Procedure: (§2) Centrifugation characteristics: 10 min, 300×g.
as §2
The respective left, middle and right columns per assay represent different Experimenters 1, 2 and 3. […] Centrifugation characteristics: 10 min, 300×g. Molecule: Cholesteryl-TEG-Cholesteryl-TEG-(SpacerC18)7-Fluos-Biotin-TEG.
(§3) Following molecules were tested: 1234: 5′-(Cholesteryl-TEG)2-Spacer C18-dT-Biotin-TEG-3′; 1248: 3′-(Cholesteryl-TEG)2-PEG2000-Fluos-Biotin-TEG-5′ INVERS; 1254: 3′-(Cholesteryl-TEG)2-SpacerC18-Fluos-Biotin-TEG-5′ INVERS; 1255: 3′-(Myristic acid)2-PEG2000-dT-Biotin-TEG-5′ INVERS. […] Centrifugation characteristics: 20 min, 300×g. Respective left column: 10 min incubation with molecule. Respective middle column: 1 h min incubation with molecule. Respective right column: 2 h incubation with molecule.
Following molecules were tested: 1255: 3′-(Myristic acid)2-PEG2000-dT-Biotin-TEG-5′ INVERS; 1234: 5′-(Cholesteryl-TEG)2-Spacer C18-dT-Biotin-TEG-3′; 1248: 3′-(Cholesteryl-TEG)2-PEG2000-Fluos-Biotin-TEG-5′ INVERS; 1254: 3′-(Cholesteryl-TEG)2-SpacerC18-Fluos-Biotin-TEG-5′ INVERS. […] Centrifugation characteristics: 20 min, 500×g. Respective left column: 10 min incubation with molecule. Respective middle column: 1 h min incubation with molecule. Respective right column: 3 h incubation with molecule.
as §3, with “tested: 1255: 3′-(Myristic acid)2-PEG2000-dT-Biotin-TEG-5′ INVERS;” for “tested:”, “3′-(Cholesteryl-TEG)2-SpacerC18-Fluos-Biotin-TEG-5′” for “3′-(Cholesteryl-TEG)2-SpacerC18-Fluos-Biotin-TEG-5′ INVERS; 1255: 3′-(Myristic acid)2-PEG2000-dT-Biotin-TEG-5′”, “1000×g.” for “300×g.”
The effect of compounds of the invention on stabilizing cells and on immobilization was determined.
Centrifugation characteristics: 10 min, 300×g. A: Choleseryl-TEG-Cholesteryl-TEG-(SpacerC18)7-Fluos-Biotin-TEG.
Centrifugation characteristics: 10 min, 300×g. Molecule: Cholesteryl-TEG-Cholesteryl-TEG-(SpacerC18)7-Fluos-Biotin-TEG.
Centrifugation characteristics: 20 min, 300×g.
Following molecules were tested: • 1255: 3′-(Myristic acid)2-PEG2000-dT-Biotin-TEG-5′ INVERS • 1234: 5′-(Cholesteryl-TEG)2-Spacer C18-dT-Biotin-TEG-3′ • 1248: 3′-(Cholesteryl-TEG)2-PEG2000-Fluos-Biotin-TEG-5′ INVERS • 1254: 3′-(Cholesteryl-TEG)2-SpacerC18-Fluos-Biotin-TEG-5′ INVERS

Hela = test: Labelling of cells using compounds of the invention; format: cell-based; conditions: * one cell stained weakly
Source text: as §1

CHO = test: as above; format: cell-based
Source text: as §1

[1] = Sample 1, first block of the table (r4-r12), footnote: 1 nmol/10e6 WBCs
[2] = Sample 1, second block of the table (r13-r21), compound concentration: 1 nmol/10e6 WBCs
[3] = Sample 2, compound concentration: 100 pmol/10e6 WBCs
[4] = Sample 2, compound concentration: 1 nmol/10e6 WBCs

5′-(Cholesterol-TEG)1-Doubler-dT-Biotin-3′ [29.891272]
WBC per well (white blood cells (WBCs); [1]): 147132 and 179643 and 181620
WBC per well (white blood cells (WBCs); [2]): 199973 and 220701 and 228481
Mean (WBC per well) (white blood cells (WBCs); [3]): 186316.33
WBC per well (white blood cells (WBCs); [3]): 161504 and 201424 and 196021
Mean (WBC per well) (white blood cells (WBCs); [4]): 247418.33
WBC per well (white blood cells (WBCs); [4]): 241232 and 254894 and 246129

5′-(Cholesteryl-TEG)2-PEG2000-Fluos-Biotin_TEG-3′ INVERS [29.891250]
Mean % / WBC recovery rate [%] (WBC (white blood cells); 30 min, WBC treated (molecule of invention + cells)): 77.28%
MW (mean WBC per well) (WBC (white blood cells); 30 min, WBC treated): 231829.75
Mean % / WBC recovery rate [%] (WBC (white blood cells); 30 min, Well treated (molecule of invention bound to surface)): 21.64%
MW (mean WBC per well) (WBC (white blood cells); 30 min, Well treated): 64909
Mean % / WBC recovery rate [%] (WBC (white blood cells); 90 min, WBC treated (molecule of invention + cells)): 83.12% and 83.1%
MW (mean WBC per well) (WBC (white blood cells); 90 min, WBC treated): 249346.25
Mean % / WBC recovery rate [%] (WBC (white blood cells); 90 min, Well treated (molecule of invention bound to surface)): 47.62% and 47.6%
MW (mean WBC per well) (WBC (white blood cells); 90 min, Well treated): 142865
Mean % / WBC recovery rate [%] (WBC (white blood cells); 120 min, WBC treated (molecule of invention + cells)): 86.23%
MW (mean WBC per well) (WBC (white blood cells); 120 min, WBC treated): 258692.75
Mean % / WBC recovery rate [%] (WBC (white blood cells); 120 min, Well treated (molecule of invention bound to surface)): 57.02%
MW (mean WBC per well) (WBC (white blood cells); 120 min, Well treated): 171062.75

5′-(Cholesteryl-TEG)2-Spacer C12-dT-Biotin_TEG-3′ INVERS [29.891253]
WBC per well (white blood cells (WBCs); [1]): 105061 and 128195 and 139678
WBC per well (white blood cells (WBCs); [2]): 218861 and 221471 and 208802
Mean (WBC per well) (white blood cells (WBCs); [3]): 187757.67
WBC per well (white blood cells (WBCs); [3]): 178919 and 197130 and 187224
Mean (WBC per well) (white blood cells (WBCs); [4]): 237052.33
WBC per well (white blood cells (WBCs); [4]): 239105 and 240632 and 231420

5′-Cholesteryl-TEG-PEG2000-Fluos-3′ [BMO 29.891132]
Labelling (staining) of WBCs (WBCs): √ not all
Labelling (staining) of Epithelial cells (Epithelial cells): √
Labelling (staining) of MDA-MB468 (MDA-MB468): √
Labelling (staining) of U937 (U937): √

5′-CholesterylTEG-CholesterylTEG-(SpacerC18)7-Fluos-BiotinTEG-3′ [BMO 29.891222_Ch03]
WBC recovery rate after centrifugation, dependence on concentration (WBC): The higher the molecule concentration, the higher the cell recovery rate after centrifugation
Cell stabilization with different experimenters (WBC; Experimenters 1, 2 and 3): cell stabilization is independent on the experimenter
WBC recovery rate after centrifugation, dependence on concentration (WBC; listed as molecule A): The higher the molecule concentration, the higher the cell recovery rate after centrifugation

5′-alphaTocopherolTEG-PEG2000-Fluos-3′ [BMO 29.891131]
Labelling (staining) of WBCs (WBCs): √ not all
Labelling (staining) of Epithelial cells (Epithelial cells): √
Labelling (staining) of MDA-MB468 (MDA-MB468): √
Labelling (staining) of U937 (U937): √

CCCCCCCCCCCCCCCC(=O)OC[C@H](COP(=O)(O)OCCNC(=O)CCc1ccc2n1[B-](F)(F)[N+]1=C(C)C=C(C)C1=C2)OC(=O)CCCCCCCCCCCCCCC.CCN(CC)CC [Phosphatidylethanolamine, N-(4,4-difluoro-5,7-dimethyl-4-bora-3a,4a-diaza-s-indacene-3-propionyl)-1,2-dihexadecanoyl-sn-glycero-3-phosphoethanolamine, triethylammonium salt]
Labelling (staining) of Hela (Hela): x/√ very weak

CCCCCCCCCCCCC/C=C/[C@@H](O)[C@H](COP(=O)([O-])OCC[N+](C)(C)C)NC(=O)CCCCc1ccc2n1[B-](F)(F)[N+]1=C(C)C=C(C)C1=C2 [Sphingomyelin, N-(4,4-difluoro-5,7-dimethyl-4-bora-3a,4a-diaza-s-indacene-3-pentanoyl)sphingosyl phosphocholine]
Labelling (staining) of Hela (Hela): √
Labelling (staining) of WBCs (WBCs): (x)- very bad
Labelling (staining) of Epithelial cells (Epithelial cells): √
Labelling (staining) of CHO (CHO): x very weak

Biotin-PEG-Lysin-(C18)2
WBC recovery rate after centrifugation, dependence on concentration (WBC; listed as molecule B): The higher the molecule concentration, the higher the cell recovery rate after centrifugation

Sulfo-JA133-phenylboronic acid [BMO: 15.000078]
Labelling (staining) of WBCs (WBCs): √ not all
Labelling (staining) of Epithelial cells (Epithelial cells): √
